Reference: US20240002424A1, “HEXOSAMINE COMPOUNDS AND METHODS THEREOF” (National Institute of Immunology, priority 2021, published 2024)

Assays:
[1] = tested on: HEK293 cells; settings: cited from earlier work
[2] = tested on: HL-60 cells; assay: Far-western blot of total lysates with biotinylated SNA; type: cell-based, human; settings: HL-60 lysates; 50 μM, 72 h
Procedure: After 72 h, cells were harvested and lyzed in RIPA buffer containing PIC. Protein concentration in the soluble fraction was estimated using Bradford assay, subjected to 10% SDS-PAGE, blotted onto nitrocellulose membranes (constant current 250 mA, 3 h, 4° C.). Membranes were blocked using 2% w/v gelatin (5.0 mL) in 0.1% PBS-T at room temperature. After 1h, membranes were incubated with either bMAL-II (1:2000, stock conc. 1.0 mg/mL) or bSNA (1:5000, stock conc. 2.0 mg/mL) in 0.1% PBS-T (5.0 mL) at room temperature. After 1 h, membranes were washed using 0.1% PBS-T (6×5.0 mL, 5.0 min), followed by incubation with HRPconjugated avidin (1:50000, stock conc. 2.0 mg/mL) in 0.1% PBS-T (5.0 mL). After 30 min, membranes were washed using 0.1% PBS-T (6×5.0 mL, 5.0 min). Blots were developed using enhanced chemiluminescence substrate and photographic films. Blots using anti-β-actin (as mentioned above) were performed in parallel as loading controls. At least two independent replicate experiments were performed.

[3] = tested on: HL-60 cells; assay: Static cell adhesion to mouse E-selectin-Fc (mCD62E) coated surfaces; type: cell-based, human; settings: HL-60 pre-incubated 50 μM, 48 h; adhesion 60 min
Procedure: Effect of ManNAc analogues on cell adhesion to E-selectin and L-selectin coated surfaces: This assay was performed in 96-well polystyrene plates under sterile conditions. The plates were prepared freshly on the day of adhesion experiments. Wells were first coated with protein-G (200 ng in 50 μL PBS per well) for 1.0 h at room temperature (RT) followed by PBS washes (2×0.1 mL). Then either recombinant mouse E-selectin-Fc chimera or L-selectin-Fc chimera (20 ng in 50 μL PBS per well) was added to the wells and plate was left undisturbed for 1.0 h at RT. Wells were aspirated and washed with PBS (2×0.1 mL) followed by blocking with 1.0% (w/v) BSA in 50 μL PBS per well for 1.0 h at RT. After blocking, the wells were washed with PBS (3×0.1 mL).
HL-60 cells (3.0×10^5 cells per mL; 2.0 mL in six well plates) were incubated with 50 μM ManNAc analogues, harvested at 48 h, washed once with serum free RPMI medium (0.5 mL), and resuspended in serum free RPMI 1640 media containing 1.5 mM CaCl2) (4.0×10^5 cells/mL in 1.0 mL). The single cell suspension was added to each well (2.0×10^4 cells in 50 μL media per well) and allowed to adhere for 1.0 h at 37° C. in a CO2 incubator. […] Images were captured at 10× magnification using Olympus IX53 fluorescence microscope. […] The images were analyzed manually and the total number of adherent cells per well for each condition were plotted.

Row | SMILES | increase of total sialic acid levels [1] | share of sialic acid being modified N-cyclopropanoyl-D-neuraminic acid [1] | SNA epitopes in lectin blot compared to controls [2] | increase in the numbers of adhered cells on mCD62E coated surface [3]
1 | CC(=O)OC[C@H]1O[C@H](OC(C)=O)[C@@H](NC(=O)C2CC2)[C@@H](OC(C)=O)[C@@H]1OC(C)=O [Compound 1a, 1,3,4,6-tetra-O-acetyl-2-cyclopropanoylamino-2-deoxy-α-D-mannopyranose] | two folds | more than 50% | significant reduction | 
2 | CC(=O)OC[C@H]1OC(OC(C)=O)[C@@H](NC(=O)C2CCC2)[C@@H](OC(C)=O)[C@@H]1OC(C)=O (stereo partly drawn) [Compound 1b, (3S,4R,5S,6R)-6-(acetoxymethyl)-3-(cyclobutanecarboxamido)tetrahydro-2H-pyran-2,4,5-triyl triacetate] |  |  | significant reduction | about 40%
